Here are results for 21 compounds from patent US8309593B2, “2-acylaminopropoanol-type glucosylceramide synthase inhibitors” (Genzyme Corporation, priority 2008, dated 2012).

One data set has as its system jck mice. Kind of data set: PKD mouse model (jck mice, compound in feed). It counts as in vivo. To be noted: for BUN / Body weight / Cystic volume / K/BW ratio: 0.225% Compound A in feed. The method, then:
jck mice was administered Compound A ad libitum in feed (0.225% Compound A mixed with a standard diet chow in powdered format) from 26-64 days of age. Control jck mice were fed a control powdered diet from 26-64 days of age. At 63 days of age, animals were transferred to metabolic cages for 24 hour urine collection. At 64 days of age, animals were sacrificed by CO2 administration. Blood was collected by heart puncture for serum isolation. Kidneys were isolated and bisected; half of each kidney was fixed in 4% paraformaldehyde in PBS overnight for paraffin embedding and H&E staining.
Total body weight and kidney weight were determined at sacrifice.
Cyst volume was measured by quantitating the percentage of cystic area in histological sections of kidneys from the treated and control animals, multiplied by the kidney/body weight ratio.
Blood urea nitrogen (BUN) levels were determined in serum samples derived from animals at sacrifice.

The subject of the next data set is GM3. Kind of data set: GM3 Elisa assay. In kind it is cell-based. The settings on record: read-out: IC50_uM_Mean. The method, then:
B16-FO cells from ATCC (American Tissue Culture Collection) were grown in DMEM media (ATCC) with 10% Fetal Bovine Serum (Hyclone) and Pen/Step/Glutamine (Biowhittaker). 4000 cells per well were plated on collagen coated plates (BD) and allowed to attach for 6 hours in an incubator (37 degrees, 5% CO2). After 6 hours the compounds and controls were added to the wells, the plates mixed and returned to the incubator for 2 days. Day of assay the cells were fixed for 20 minutes with 1% formaldehyde and then washed with Tris Buffered Saline (TBS) 3 times, 150 μl of TBS was left in the wells and 50 μl of goat serum (Invitrogen) was added, the plates mixed and incubated for 1 hour at room temperature. The plates were flicked and the cells incubated with the monoclonal Antibody to GM3 (NeuAc) (Cosmo) for 45 minutes as room temperature. The plates were then washed 3 times with TBS, leaving 150 μl of TBS in the wells and Peroxidase AffinPure F (ab′) 2 frag Gt Anti-mouse IgM, μ Chain Specific (Jackson Immuno Research) was added in 50 μl, the plates mixed and incubated for 45 minutes at room temperature. The plates were washed 3 times with TBS, flicked and blotted and 100 μl of Quantablu (Pierce) was added to the wells and incubated for 1 hour then read on a Fluorometer at Ex 325 and Em 420. The data was then analyzed using standard programs.

Where [1] appears, read: female jck mice, 26-64 days of age.
Setting [2] is: male jck mice, 26-64 days of age.
Where [3] appears, read: 48 h, Table 1, B16-FO cells, 2 days with compound.

Like-named read-outs stand apart in the source and are kept apart here.

As for `CCCCCCCCC(=O)N[C@H](CN1CCCC1)[C@H](O)c1ccc2c(c1)OCCO2` [Compound A, N-((1R,2R)-1-(2,3-dihydrobenzo[b][1,4]dioxin-6-yl)-1-hydroxy-3-(pyrrolidin-1-yl)propan-2-yl)nonanamide], in the data set with jck mice (setting [1]), the BUN came out at 34.67 ± 9.41 mg/dL, the Body weight amounted to 15.93 ± 1.65 g, the Cystic volume was found to be 0.58 ± 0.29 % BW and the K/BW ratio worked out at 3.57 ± 0.58 %. For the same compound, the total body weight entry with jck mice (jck mice, 0.225% in feed, 26-64 days of age, at sacrifice, vs control, p-value<0.05, two-tailed t-test) is reported as “statistically significant decrease”. In addition, in the data set on jck mice (jck mice, 0.225% in feed, 26-64 days of age, percentage cystic area x kidney/body weight ratio, vs control, p-value<0.05), the cyst volume entry was “significant decrease”. The “Blood urea nitrogen (BUN) levels” value in the data set with jck mice (jck mice, 0.225% in feed, 26-64 days of age, serum at sacrifice, vs untreated controls, p-value<0.05) is given as “significant reduction”. Besides, the cystic disease result with jck mice (jck mice, 0.225% in feed, as measured by kidney/body weight ratio and cyst volume, males and females) is given as “statistically significant reduction”. Besides, the renal function result in the data set on jck mice (jck mice, 0.225% in feed, treated animals relative to controls, males and females) was “improved renal function”. Also, in the data set on jck mice (setting [2]), the BUN was determined as 39.25 ± 10.70 mg/dL, the Body weight is reported as 18.43 ± 1.82 g, the Cystic volume worked out at 0.88 ± 0.23 % BW and the K/BW ratio stood at 4.46 ± 0.46 %.

For the compound `CCCCCCCCCCCCCCCC(=O)N[C@H](CN(C)C1CCCC1)C(O)c1ccc2c(c1)OCCO2` (stereo partly drawn) [Compound 685], the IC50 with GM3 (Table 3 (title: IC 50 Values)) fell in the range of 3000 to 10000 nM. The same measure, in the same setting: under `COc1ccc(OCCC(=O)N[C@@H](CN2CCCC2)[C@@H](O)c2ccc3c(c2)OCCO3)cc1` [Compound 675] stands 3000 to 10000 nM; under `COc1ccc(C(=O)CCCCCC(=O)N[C@H](CN2C(C)CCC[C@H]2C)[C@@H](O)c2ccc3c(c2)OCCO3)cc1` (stereo partly drawn) [Compound 602], 3000 to 10000 nM. Still for that read-out and setting: as for `O=C(CCCOc1ccc(F)cc1)N[C@@H](CN1CC[C@H](O)C1)[C@H](O)c1ccc2c(c1)OCCO2` [Compound 656], the figure is ≤ 100 nM; as for `COc1ccc(C(=O)CCCCCC(=O)N[C@H](CN2CCC[C@@H]2C)C(O)c2ccc3c(c2)OCCO3)cc1` (stereo partly drawn) [Compound 525], ≤ 100 nM.

As for `CCCCCCCC(=O)N[C@H](CN1CC2CC2C1)[C@@H](O)c1ccc2c(c1)OCCO2` (stereo partly drawn) [Compound 517], the IC50 in the data set on GM3 (Table 3 (title: IC 50 Values)) lay within 100 to 1000 nM.

In the case of `CCCCCCCC(=O)N[C@H](CN1CCC[C@@H]1COC)[C@@H](O)c1ccc2c(c1)OCCO2` [Compound 540], the IC50 with GM3 (Table 3 (title: IC 50 Values)) lay within 3000 to 10000 nM.

Consider `COc1ccc(OCCC(=O)N[C@H](CN2CCCC2(C)C)[C@@H](O)c2ccc3c(c2)OCCO3)cc1` [Compound 551], for which the IC50 in the data set on GM3 (Table 3 (title: IC 50 Values)) lay within 3000 to 10000 nM. Still for that read-out and setting: as for `O=C(CCCCCC1CCOCC1)N[C@H](CN1CCCC1)[C@@H](O)c1ccc2c(c1)OCCO2` [Compound 559], the figure is 100 to 1000 nM; as for `COc1ccc(OCCC(=O)N[C@H](CN2[C@H](C)CC[C@@H]2C)[C@H](O)c2ccc3c(c2)OCCO3)cc1` [Compound 550], 3000 to 10000 nM. With `O=C(CCCc1nc2ccccc2s1)N[C@H](CN1CCCC1)[C@H](O)c1ccc2c(c1)OCCO2` [Compound 101, 4-(benzo[d]thiazol-2-yl)-N-((1R,2R)-1-(2,3-dihydrobenzo[1,4]dioxin-6-yl)-1-hydroxy-3-(pyrrolidin-1-yl)propan-2-yl)butanamide], in the data set with GM3 (setting [3]), the IC50 is ≤ 100 nM. For `COc1ccc(C(=O)CCOCCC(=O)N[C@H](CN2CC[C@@H](O)C2)[C@H](O)c2ccc3c(c2)OCCO3)cc1` [Compound 518], the IC50 with GM3 (Table 3 (title: IC 50 Values)) fell in the range of 100 to 1000 nM. On the same count and under the same terms, under `CCNC[C@@H](NC(=O)CCCCCC(=O)c1ccc(OC)cc1)C(O)c1ccc2c(c1)OCCO2` (stereo partly drawn) [Compound 467] stands 100 to 1000 nM. The same measure, in the same setting: as for `COc1ccc(OCCC(=O)N[C@@H](CN2CCCC2)[C@@H](O)c2ccc3c(c2)OCCO3)cc1` [Compound 674], the figure is 3000 to 10000 nM. `COc1ccc(OCCC(=O)N[C@H](CN2CCCC2)[C@H](O)c2ccc3c(c2)OCCO3)cc1` [Compound 61, N-((1R,2R)-1-(2,3-dihydrobenzo[β][1,4]dioxin-6-yl)-1-hydroxy-3-(pyrrolidin-1-yl)propan-2-yl)-3-(4-methoxyphenoxy)propanamide]: the IC50 with GM3 (setting [3]) was ≤ 100 nM. As for `Cc1nccn1C[C@@H](NC(=O)CCCCCC(=O)c1ccc(F)cc1)[C@@H](O)c1ccc2c(c1)OCCO2` [Compound 569], in the data set with GM3 (Table 3 (title: IC 50 Values)), the IC50 fell in the range of 3000 to 10000 nM. Same read-out and setting: under `O=C(CCCCCC(=O)c1ccc(F)cc1)N[C@H](CN1CC[C@@H](F)C1)[C@@H](O)c1ccc2c(c1)OCCO2` [Compound 565] stands ≤ 100 nM. Same read-out and setting: as for `O=C(Cc1ccc(OC(F)(F)F)cc1)N[C@H](CN1CCCC1)[C@H](O)c1ccc(Cl)s1` [Compound 492], the figure is 3000 to 10000 nM; as for `COc1ccc(OCC[C@H](O)N[C@H](CN2C(C)CCCC2C)C(O)c2ccc3c(c2)OCCO3)cc1` (stereo partly drawn) [Compound 598], 3000 to 10000 nM; as for `CC(=O)CCCCCC(=O)N[C@H](CN1CCCC1)[C@@H](O)c1ccc(OC(F)(F)F)cc1` [Compound 665], 3000 to 10000 nM.
